Results from PMC8588277, “Oxy-Polybrominated Diphenyl Ethers from the Indonesian Marine Sponge, Lamellodysidea herbacea: X-ray, SAR, and Computational Studies” (Molecules, 2021).
In brackets after ≈: the same amount, converted by molar mass. Where two headings read alike, the source gives them in different places.

Experiments:
[1] = In vitro cytotoxicity assay (MTT); type: cell-based, human; details: human
Experimental: (§1) In vitro cytotoxicity was determined against human embryonic kidney (HEK293T) cells. The assay was performed in 96-well treated tissue culture plates. Cells were seeded in the wells (5000 cells in 100 µL media containing RPMI1640, FBS, penicillin and streptomycin) and incubated for 24 h. Samples were then added and plates were again incubated for 48 h. MTT was then added and the plates were incubated for 4 h at 37 °C. Formazan crystals formed were dissolved in EtOH and absorbances were read at λ = 595 nm. The result was analyzed by using Prism 9 software (Graphpad, San Diego, CA, USA) to obtain IC50 values.

[2] = test system: Staphylococcus aureus ATCC 6538; experiment: Agar-plate diffusion assay, S. aureus; type: cell-based; details: for Antibacterial Activity Gram-Positive S. aureus Clear Inhibition Zone: at the MID, disk diameter 6 mm; for Antibacterial Activity Gram-Positive S. aureus MID: minimum dose that induced an obvious inhibition zone (1–1.5 mm), 6 mm disk
Experimental: (§2) Staphylococcus aureus ATCC 6538 and Klebsiella pneumoniae were used for biological evaluation. Concentrations assayed ranged from 0.08 to 1.25 µg/disks. DMSO was used to dissolve the compounds, while vancomycin and oxacillin were used as positive controls for Staphylococcus aureus and gentamycin was used as a positive control for Klebsiella pneumoniae. The minimum inhibitory dose (MID, μg/disk) was defined as the minimum dose that induced an obvious inhibition zone (1–1.5 mm). The disk diameter was 6 mm.

[3] = test system: Klebsiella pneumoniae; experiment: Agar-plate diffusion assay, K. pneumoniae; type: cell-based; details: for Antibacterial Activity Gram-Negative K. pneumoniae Clear Inhibition Zone: at the MID, disk diameter 6 mm; for Antibacterial Activity Gram-Negative K. pneumoniae MID: minimum dose that induced an obvious inhibition zone (1–1.5 mm), 6 mm disk
Experimental: as §2

[4] = test system: human embryonic kidney (HEK293T) cells; experiment: In vitro cytotoxicity assay (MTT); type: cell-based
Experimental: as §1

[5] = test system: Staphylococcus aureus; set-up: method as in PMID 27399938; details: cited from earlier work
[6] = test system: Bsc-1 cells; set-up: method as in PMID 27399938; details: cited from earlier work
[7] = test system: Pseudomonas aeruginosa; set-up: method as in PMID 27399938; details: cited from earlier work
[8] = test system: Enterococcus faecium; set-up: method as in PMID 27399938; details: cited from earlier work
[9] = test system: Candida albicans; set-up: method as in PMID 27399938; details: cited from earlier work
[10] = test system: Escherichia coli; set-up: method as in PMID 27399938; details: cited from earlier work
[11] = HEK293T cells, MTT, 48 h, read-out: Cytotoxicity HEK293T IC50
[12] = Homo sapiens, HEK-293T, HEK293T cells, methylation and acetylation products, read-out: IC50 against HEK293T

| Molecule | Antibacterial Activity Gram-Positive S. aureus Clear Inhibition Zone [2] | Antibacterial Activity Gram-Positive S. aureus MID [2] | Antibacterial Activity Gram-Negative K. pneumoniae Clear Inhibition Zone [3] | Antibacterial Activity Gram-Negative K. pneumoniae MID [3] | IC50 [4, 12] | other results |
| --- | --- | --- | --- | --- | --- | --- |
| Oc1c(Br)cc(Br)cc1Oc1c(O)c(Br)c(Br)c(Br)c1Br [Compound 1, 2,3,4,5-tetrabromo-6-(3′, 5′-dibromo-2′-hydroxyphenoxy) phenol] | 7.17 ± 0.24 mm | 0.078 µg/Disk | 7.00 ± 0.00 mm | 0.078 µg/Disk | – | IC50 at 48 h ([1]; Cytotoxicity HEK293T IC50): 16.2 ± 1.17 µM |
| Gentamycin | 7.67 ± 0.47 mm | 0.078 µg/Disk | 7.33 ± 0.47 mm | 0.078 µg/Disk | – | – |
| Oc1ccccc1Oc1ccccc1O [Compound 30, 2, 2′-oxydiphenol, reference compound] | – | – | – | – | – | IC50 at 48 h [1, 11]: > 198 µM |
| CC(=O)Oc1c(Br)cc(Br)cc1Oc1c(Br)cc(Br)c(Br)c1OC(C)=O [Compound 13, 2,3,5-tribromo-6-(3′,5′-dibromo-2′-acetoxyphenoxy) phenyl acetate] | – | – | – | – | > 10 µg/mL | – |
| COc1c(Br)cc(Br)cc1Oc1c(Br)c(Br)c(Br)c(Br)c1OC [Compound 8, 2,3,4,5-tetrabromo-6-(3′,5′-dibromo-2′-methoxyphenoxy) anisole] | – | – | – | – | > 10 µg/mL | – |
| COc1c(Br)c(Br)c(Br)c(Br)c1Oc1cc(Br)cc(Br)c1O [Compound 7] | – | – | – | – | > 10 µg/mL | – |
| Cc1onc(-c2ccccc2)c1C(=O)N[C@@H]1C(=O)N2[C@@H]1SC(C)(C)[C@@H]2C(=O)O [Oxacillin] | 11.33 ± 0.24 mm | < 0.078 µg/Disk | 7.33 ± 0.24 mm | 0.078 µg/Disk | – | – |
| COc1c(Br)cc(Br)cc1Oc1c(Br)cc(Br)c(Br)c1OC [Compound 9, 2,3,5-tribromo-6-(3′,5′-dibromo-2′-methoxyphenoxy) anisole] | – | – | – | – | > 10 µg/mL | – |
| Oc1cc(Br)cc(Br)c1Oc1cc(Br)cc(Br)c1O [Compound 16, 3,5-dibromo-6-(3′, 5′-dibromo-2′-hydroxyphenoxy) phenol] | 7.00 ± 0.00 mm | 0.078 µg/Disk | 7.50 ± 0.00 mm | 0.078 µg/Disk | – | MIC Staphylococcus aureus [5]: 1.25 to 1.6 µg/mL; IC50 ([4]; human, 48 h): 8.11 µM; IC50 at 48 h ([1]; Cytotoxicity HEK293T IC50): 8.65 ± 1.11 µM; IC50 against Bsc-1 cells [6]: > 50 µg/mL; MIC Pseudomonas aeruginosa [7]: > 50 µg/mL; MIC Enterococcus faecium [8]: 1.6 to 3.1 µg/mL; MIC Candida albicans [9]: > 50 µg/mL; MIC Escherichia coli [10]: 50 µg/mL (≈ 96.6 µM) |
| CC(=O)Oc1c(Br)c(Br)c(Br)c(Br)c1Oc1cc(Br)cc(Br)c1O [Compound 10, 2,3,4,5-tetrabromo-6-(3′,5′-dibromo-2′-hydroxyphenoxy) phenyl acetate] | – | – | – | – | > 10 µg/mL | – |
| CC(=O)Oc1c(Br)cc(Br)cc1Oc1c(Br)c(Br)c(Br)c(Br)c1OC(C)=O [Compound 11, 2,3,4,5-tetrabromo-6-(3′,5′-dibromo-2′-acetoxyphenoxy) phenyl acetate] | – | – | – | – | > 10 µg/mL | – |
| COc1cccc2c1C(=O)c1c(O)c3c(c(O)c1C2=O)C[C@@](O)(C(=O)CO)C[C@@H]3O[C@H]1C[C@H](N)[C@H](O)[C@H](C)O1 [Doxorubicin, reference compound] | – | – | – | – | – | IC50 at 48 h [1, 11]: 0.22 ± 0.09 µM |
| CC(=O)Oc1c(Br)c(Br)cc(Br)c1Oc1cc(Br)cc(Br)c1O [Compound 12, 2,3,5-tribromo-6-(3′, 5′-dibromo-2′-hydroxyphenoxy) phenyl acetate] | – | – | – | – | > 10 µg/mL | – |
| CN[C@H](CC(C)C)C(=O)N[C@H]1C(=O)N[C@@H](CC(N)=O)C(=O)N[C@H]2C(=O)N[C@H]3C(=O)N[C@H](C(=O)N[C@H](C(=O)O)c4cc(O)cc(O)c4-c4cc3ccc4O)[C@H](O)c3ccc(c(Cl)c3)Oc3cc2cc(c3O[C@@H]2O[C@H](CO)[C@@H](O)[C@H](O)[C@H]2O[C@H]2C[C@](C)(N)[C@H](O)[C@H](C)O2)Oc2ccc(cc2Cl)[C@H]1O [Vancomycin] | 7.00 ± 0.00 mm | 0.078 µg/Disk | 7.33 ± 0.24 mm | 0.078 µg/Disk | – | – |
